Test results from PubChem BioAssay AID2060503 (Molecular Pharmacology Branch, DTP, NCI, 2025).

What follows are compounds tested on 817829-284-R-J1-PDC complex spheroids, viability (assay: Anticancer human tumor 817829-284-R-J1-PDC patient-derived colon adenocarcinoma cell line growth inhibition [GQUAD]). Settings: second compound 0.1 µM; first compound 1 µM; stronger effect = lower value.
Outline: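 Viability of tumor cells grown as complex spheroids with endothelial and stromal cells, exposed to drug combinations. Top concentration at or near clinical Cmax (else 10 microM), diluted in half-log increments.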
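Also: spheroids exposed to agents for 7 days before readout; percent viability relative to DMSO vehicle control taken as 100%.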

SMILES	viability, T/C [%]
CCCS(=O)(=O)Nc1ccc(F)c(C(=O)c2c[nH]c3ncc(-c4ccc(Cl)cc4)cc23)c1F + CN(C)c1ccc(Nc2c3ccc(NC(=O)CCN4CCCC4)cc3nc3cc(NC(=O)CCN4CCCC4)ccc23)cc1	102
COc1ncnc(C2CC2)c1-c1ncc2cnn(Cc3ccc(-c4nc(C(F)(F)F)cn4C(C)C)cc3)c2n1 + CN(C)c1ccc(Nc2c3ccc(NC(=O)CCN4CCCC4)cc3nc3cc(NC(=O)CCN4CCCC4)ccc23)cc1	105
O=C(NO)c1cnc(N2CCN(S(=O)(=O)c3ccc4ccccc4c3)CC2)nc1 + CN(C)c1ccc(Nc2c3ccc(NC(=O)CCN4CCCC4)cc3nc3cc(NC(=O)CCN4CCCC4)ccc23)cc1	0.23
CC1COCCN1c1cc(C2(O)CC3CCC(C2)O3)c2cnn(-c3ccn[nH]3)c2n1 (configuration not stated) + Cc1[nH]c2ccc(F)cc2c1-c1nc2c3cccnc3c3ncccc3c2[nH]1	6.04

Same assay, conditions: second compound 0.1 µM; first compound 3.16 µM; stronger effect = lower value

SMILES	viability, T/C [%]
C=CCn1c(=O)c2cnc(Nc3ccc(N4CCN(C)CC4)cc3)nc2n1-c1cccc(C(C)(C)O)n1 + CN(C)c1ccc(Nc2c3ccc(NC(=O)CCN4CCCC4)cc3nc3cc(NC(=O)CCN4CCCC4)ccc23)cc1	7.3
CCCS(=O)(=O)Nc1ccc(F)c(C(=O)c2c[nH]c3ncc(-c4ccc(Cl)cc4)cc23)c1F + CN(C)c1ccc(Nc2c3ccc(NC(=O)CCN4CCCC4)cc3nc3cc(NC(=O)CCN4CCCC4)ccc23)cc1	79.1
COc1ncnc(C2CC2)c1-c1ncc2cnn(Cc3ccc(-c4nc(C(F)(F)F)cn4C(C)C)cc3)c2n1 + CN(C)c1ccc(Nc2c3ccc(NC(=O)CCN4CCCC4)cc3nc3cc(NC(=O)CCN4CCCC4)ccc23)cc1	111
O=C(NO)c1cnc(N2CCN(S(=O)(=O)c3ccc4ccccc4c3)CC2)nc1 + CN(C)c1ccc(Nc2c3ccc(NC(=O)CCN4CCCC4)cc3nc3cc(NC(=O)CCN4CCCC4)ccc23)cc1	0.12
CC1COCCN1c1cc(C2(O)CC3CCC(C2)O3)c2cnn(-c3ccn[nH]3)c2n1 (configuration not stated) + Cc1[nH]c2ccc(F)cc2c1-c1nc2c3cccnc3c3ncccc3c2[nH]1	5.1

Same assay, conditions: second compound 0.1 µM; first compound 10 µM; stronger effect = lower value

SMILES	viability, T/C [%]
C=CCn1c(=O)c2cnc(Nc3ccc(N4CCN(C)CC4)cc3)nc2n1-c1cccc(C(C)(C)O)n1 + CN(C)c1ccc(Nc2c3ccc(NC(=O)CCN4CCCC4)cc3nc3cc(NC(=O)CCN4CCCC4)ccc23)cc1	5.57
CCCS(=O)(=O)Nc1ccc(F)c(C(=O)c2c[nH]c3ncc(-c4ccc(Cl)cc4)cc23)c1F + CN(C)c1ccc(Nc2c3ccc(NC(=O)CCN4CCCC4)cc3nc3cc(NC(=O)CCN4CCCC4)ccc23)cc1	21.5
COc1ncnc(C2CC2)c1-c1ncc2cnn(Cc3ccc(-c4nc(C(F)(F)F)cn4C(C)C)cc3)c2n1 + CN(C)c1ccc(Nc2c3ccc(NC(=O)CCN4CCCC4)cc3nc3cc(NC(=O)CCN4CCCC4)ccc23)cc1	114
O=C(NO)c1cnc(N2CCN(S(=O)(=O)c3ccc4ccccc4c3)CC2)nc1 + CN(C)c1ccc(Nc2c3ccc(NC(=O)CCN4CCCC4)cc3nc3cc(NC(=O)CCN4CCCC4)ccc23)cc1	0.17
CC1COCCN1c1cc(C2(O)CC3CCC(C2)O3)c2cnn(-c3ccn[nH]3)c2n1 (configuration not stated) + Cc1[nH]c2ccc(F)cc2c1-c1nc2c3cccnc3c3ncccc3c2[nH]1	3.62

Same assay, conditions: second compound 0.316 µM; first compound 0.000999 µM; stronger effect = lower value

SMILES	viability, T/C [%]
Cc1[nH]c2ccccc2c1CCNCc1ccc(/C=C/C(=O)NO)cc1 + CN(C)c1ccc(Nc2c3ccc(NC(=O)CCN4CCCC4)cc3nc3cc(NC(=O)CCN4CCCC4)ccc23)cc1	94.1

Same assay, conditions: second compound 0.316 µM; first compound 0.00316 µM; stronger effect = lower value

SMILES	viability, T/C [%]
Cc1[nH]c2ccccc2c1CCNCc1ccc(/C=C/C(=O)NO)cc1 + CN(C)c1ccc(Nc2c3ccc(NC(=O)CCN4CCCC4)cc3nc3cc(NC(=O)CCN4CCCC4)ccc23)cc1	115

Same assay, conditions: second compound 0.316 µM; first compound 0.00999 µM; stronger effect = lower value

SMILES	viability, T/C [%]
Cc1[nH]c2ccccc2c1CCNCc1ccc(/C=C/C(=O)NO)cc1 + CN(C)c1ccc(Nc2c3ccc(NC(=O)CCN4CCCC4)cc3nc3cc(NC(=O)CCN4CCCC4)ccc23)cc1	117

Same assay, conditions: second compound 0.316 µM; first compound 0.0316 µM; stronger effect = lower value

SMILES	viability, T/C [%]
C=CCn1c(=O)c2cnc(Nc3ccc(N4CCN(C)CC4)cc3)nc2n1-c1cccc(C(C)(C)O)n1 + CN(C)c1ccc(Nc2c3ccc(NC(=O)CCN4CCCC4)cc3nc3cc(NC(=O)CCN4CCCC4)ccc23)cc1	102
CCCS(=O)(=O)Nc1ccc(F)c(C(=O)c2c[nH]c3ncc(-c4ccc(Cl)cc4)cc23)c1F + CN(C)c1ccc(Nc2c3ccc(NC(=O)CCN4CCCC4)cc3nc3cc(NC(=O)CCN4CCCC4)ccc23)cc1	107
COc1ncnc(C2CC2)c1-c1ncc2cnn(Cc3ccc(-c4nc(C(F)(F)F)cn4C(C)C)cc3)c2n1 + CN(C)c1ccc(Nc2c3ccc(NC(=O)CCN4CCCC4)cc3nc3cc(NC(=O)CCN4CCCC4)ccc23)cc1	100
Cc1[nH]c2ccccc2c1CCNCc1ccc(/C=C/C(=O)NO)cc1 + CN(C)c1ccc(Nc2c3ccc(NC(=O)CCN4CCCC4)cc3nc3cc(NC(=O)CCN4CCCC4)ccc23)cc1	75.3
O=C(NO)c1cnc(N2CCN(S(=O)(=O)c3ccc4ccccc4c3)CC2)nc1 + CN(C)c1ccc(Nc2c3ccc(NC(=O)CCN4CCCC4)cc3nc3cc(NC(=O)CCN4CCCC4)ccc23)cc1	98.8
CC1COCCN1c1cc(C2(O)CC3CCC(C2)O3)c2cnn(-c3ccn[nH]3)c2n1 (configuration not stated) + Cc1[nH]c2ccc(F)cc2c1-c1nc2c3cccnc3c3ncccc3c2[nH]1	28.5

Same assay, conditions: second compound 0.316 µM; first compound 0.0999 µM; stronger effect = lower value

SMILES	viability, T/C [%]
Cc1[nH]c2ccccc2c1CCNCc1ccc(/C=C/C(=O)NO)cc1 + CN(C)c1ccc(Nc2c3ccc(NC(=O)CCN4CCCC4)cc3nc3cc(NC(=O)CCN4CCCC4)ccc23)cc1	3.89

Same assay, conditions: second compound 0.316 µM; first compound 0.1 µM; stronger effect = lower value

SMILES	viability, T/C [%]
C=CCn1c(=O)c2cnc(Nc3ccc(N4CCN(C)CC4)cc3)nc2n1-c1cccc(C(C)(C)O)n1 + CN(C)c1ccc(Nc2c3ccc(NC(=O)CCN4CCCC4)cc3nc3cc(NC(=O)CCN4CCCC4)ccc23)cc1	109
CCCS(=O)(=O)Nc1ccc(F)c(C(=O)c2c[nH]c3ncc(-c4ccc(Cl)cc4)cc23)c1F + CN(C)c1ccc(Nc2c3ccc(NC(=O)CCN4CCCC4)cc3nc3cc(NC(=O)CCN4CCCC4)ccc23)cc1	115
COc1ncnc(C2CC2)c1-c1ncc2cnn(Cc3ccc(-c4nc(C(F)(F)F)cn4C(C)C)cc3)c2n1 + CN(C)c1ccc(Nc2c3ccc(NC(=O)CCN4CCCC4)cc3nc3cc(NC(=O)CCN4CCCC4)ccc23)cc1	118
O=C(NO)c1cnc(N2CCN(S(=O)(=O)c3ccc4ccccc4c3)CC2)nc1 + CN(C)c1ccc(Nc2c3ccc(NC(=O)CCN4CCCC4)cc3nc3cc(NC(=O)CCN4CCCC4)ccc23)cc1	111
CC1COCCN1c1cc(C2(O)CC3CCC(C2)O3)c2cnn(-c3ccn[nH]3)c2n1 (configuration not stated) + Cc1[nH]c2ccc(F)cc2c1-c1nc2c3cccnc3c3ncccc3c2[nH]1	13.2

Same assay, conditions: second compound 0.316 µM; first compound 0.316 µM; stronger effect = lower value

SMILES	viability, T/C [%]
C=CCn1c(=O)c2cnc(Nc3ccc(N4CCN(C)CC4)cc3)nc2n1-c1cccc(C(C)(C)O)n1 + CN(C)c1ccc(Nc2c3ccc(NC(=O)CCN4CCCC4)cc3nc3cc(NC(=O)CCN4CCCC4)ccc23)cc1	39.2
CCCS(=O)(=O)Nc1ccc(F)c(C(=O)c2c[nH]c3ncc(-c4ccc(Cl)cc4)cc23)c1F + CN(C)c1ccc(Nc2c3ccc(NC(=O)CCN4CCCC4)cc3nc3cc(NC(=O)CCN4CCCC4)ccc23)cc1	97.7
COc1ncnc(C2CC2)c1-c1ncc2cnn(Cc3ccc(-c4nc(C(F)(F)F)cn4C(C)C)cc3)c2n1 + CN(C)c1ccc(Nc2c3ccc(NC(=O)CCN4CCCC4)cc3nc3cc(NC(=O)CCN4CCCC4)ccc23)cc1	102
